Each structure is given as a SMILES string.

The target in this assay is T1, FXR-LBD (Farnesoid X Receptor) (Homo sapiens, UniProt Q96RI1).
T1 construct: Add 5 μl of 4×FXR-LBD to 384 well assay plates; purchased
T1 sequence (Q96RI1 262-486 limits assumed): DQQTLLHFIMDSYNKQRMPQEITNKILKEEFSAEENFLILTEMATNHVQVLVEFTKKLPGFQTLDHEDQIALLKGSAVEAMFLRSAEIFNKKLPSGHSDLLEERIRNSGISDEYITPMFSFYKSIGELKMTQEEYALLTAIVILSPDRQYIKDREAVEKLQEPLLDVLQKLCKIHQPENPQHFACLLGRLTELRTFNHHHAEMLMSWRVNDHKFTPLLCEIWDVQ
In words: LanthaScreen TR-FRET Farnesoid X Receptor Coactivator Assay. In kind it is biochemical. The conditions noted are these: TR-FRET ratio 520 nm/495 nm; 10 doses, 3-fold serial dilution; GW4064 as positive control. On the procedure:
The compounds of the present technology may be assayed using the following procedure and will be shown to have FXR binding activity.
LanthaScreen™ TR-FRET Farnesoid X Receptor Coactivator Assay
GW4064 as a positive control
• 1. All of compounds were 3-fold serial diluted from 10 mM stock for 10 doses in DMSO. • 2. Dilute each 100× agonist serial dilution to 2× using Complete Coregulator buffer G. • 3. Transfer 10 μl of each of the 2× agonist serial dilutions to 384 well assay plates. • 4. Add 5 μl of 4×FXR-LBD to 384 well assay plates. • 5. Add 5 μl of 4× peptide/4× antibody solution to 384 well assay plates. • 6. Incubate at room temperature protected from light. • 7. Read the plate at wavelengths of 520 nm and 495 nm on Envision 2104 plate reader. • 8. Calculate the TR-FRET ratio by dividing the emission signal at 520 nm by the emission signal at 495 nm. • 9. Calculate EC50 by fitting % Activity values and log of compound concentrations to nonlinear regression (dose response−variable slope) with Graphpad 5.0.
(In general: TR-FRET usually uses a lanthanide donor and a delayed reading to cut background.)
A word on the EC50: it is the concentration needed to bring the measured effect to its halfway point. As for `CON=C1C(C)=C[C@H]2C(=O)O[C@H]3C[C@@H](C/C=C(\C)[C@@H](O[C@H]4C[C@H](OC)[C@@H](O)[C@H](C)O4)[C@@H](C)/C=C/C=C4\CO[C@H]1[C@@]42O)O[C@@]1(C=C[C@H](C)[C@@H](C2CCCCC2)O1)C3` [Compound 35], the concentration giving a half-maximal response (EC50) is 301 to 1000 nM. Consider `CO[C@H]1C[C@H](O[C@H]2[C@H](C)O[C@@H](O[C@@H]3/C(C)=C/C[C@@H]4C[C@@H](C[C@]5(C=C[C@H](C)[C@@H](C6CCCCC6)O5)O4)OC(=O)[C@@H]4C=C(C)C(=NO)[C@H]5OC/C(=C\C=C\[C@@H]3C)[C@]54O)C[C@@H]2OC)O[C@@H](C)[C@@H]1O` [Compound 31], for which the EC50 was 10 to 100 nM. For `CO[C@H]1C[C@H](O[C@@H]2/C(C)=C/C[C@@H]3C[C@@H](C[C@]4(C=C[C@H](C)[C@@H](C5CCCCC5)O4)O3)OC(=O)[C@@H]3C=C(C)C(=NO)[C@H]4OC/C(=C\C=C\[C@@H]2C)[C@]43O)O[C@@H](C)[C@@H]1O` [Compound 33] the value was 10 to 100 nM. For `CO[C@H]1C[C@H](O[C@@H]2/C(C)=C/C[C@@H]3C[C@@H](C[C@]4(C=C[C@H](C)[C@@H](C5CCCCC5)O4)O3)OC(=O)[C@@H]3C=C(C)[C@@H](O)[C@H]4OC/C(=C\C=C\[C@@H]2C)[C@]43O)O[C@@H](C)[C@@H]1O` [Compound 32] the value was 101 to 300 nM.
